From PubChem BioAssay (NCI) come the findings set out here.

Values joined by “and” are separate entries in the source; they are usually repeats but may differ in a detail not shown here. Equal entries are not always repeated.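 Grown in 96-well plates, cells were treated for 48 hours with each compound at five concentrations. Insufficient inhibition: endpoint recorded as highest concentration tested. GI50 marks 50% less growth. TGI is the concentration that stops growth completely.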 Where only a bound is given, the exact number is not on record here.

Among the test systems are K-562 leukemia; UACC-257 melanoma; DMS 114 small cell lung; KM20L2 colon; SF-268 CNS; ACHN renal; OVCAR-3 ovarian; SK-MEL-2 melanoma; SNB-75 CNS; COLO 205 colon; HT29 colon; XF 498 CNS; DU-145 prostate; MCF7 breast; MDA-N.
Holding throughout (experiment): NCI tumour cell line growth inhibition, 48 h

On to `CC(=O)NC(CCCCNCc1ccccc1)C(=O)NCc1ccccc1` (stereo unspecified), for which the TGI in the assay with K-562 leukemia, in the assay on UACC-257 melanoma, with DMS 114 small cell lung, in the assay on KM20L2 colon, in the assay on SF-268 CNS and in the assay on ACHN renal was more than 100 µM in each case. Further, the TGI in the assay on OVCAR-3 ovarian, in the assay on SK-MEL-2 melanoma, in the assay with SNB-75 CNS, in the assay with COLO 205 colon, in the assay with HT29 colon and in the assay on XF 498 CNS was more than 100 µM throughout.
With `CC(=O)NC(CCCNC(=O)N(C)N=O)C(=O)NCc1ccccc1` (stereo unspecified), the TGI in the assay on K-562 leukemia, in the assay on UACC-257 melanoma, in the assay on DMS 114 small cell lung, in the assay with KM20L2 colon, in the assay on SF-268 CNS and in the assay with ACHN renal was more than 100 µM throughout. The TGI in the assay with OVCAR-3 ovarian, with SK-MEL-2 melanoma, in the assay with SNB-75 CNS, in the assay with COLO 205 colon, in the assay on HT29 colon and with XF 498 CNS was more than 100 µM throughout.
For the compound `Cc1cc(Cl)ccc1NC(=O)/C(=N\NC(C)(C)C)C(C#N)c1nc(-c2ccc([N+](=O)[O-])cc2)cs1` (stereo unspecified), the TGI in the assay on K-562 leukemia, in the assay on UACC-257 melanoma, with DMS 114 small cell lung, in the assay on KM20L2 colon, in the assay with SF-268 CNS and in the assay on ACHN renal was more than 100 µM each time. Also, the TGI in the assay with OVCAR-3 ovarian, in the assay with SK-MEL-2 melanoma, with SNB-75 CNS, in the assay with HT29 colon and in the assay on XF 498 CNS was more than 100 µM throughout.
`CCOc1ccc(N(CC(=O)N2CC(=O)Nc3cc(C)c(C)cc32)C(C)=O)cc1`: the TGI with K-562 leukemia, with UACC-257 melanoma, in the assay on KM20L2 colon, in the assay with SF-268 CNS, with ACHN renal and in the assay on OVCAR-3 ovarian was more than 100 µM throughout. In addition, the TGI with SK-MEL-2 melanoma, with SNB-75 CNS, in the assay on COLO 205 colon, in the assay on HT29 colon and in the assay on XF 498 CNS was more than 100 µM each time.
In the case of `N#C/C(c1nc2ccccc2[nH]1)=c1\s/c(=C/c2ccccc2)c(=O)n1-c1ccccc1`, the TGI in the assay on K-562 leukemia, in the assay on UACC-257 melanoma, in the assay with DMS 114 small cell lung, with KM20L2 colon, in the assay on SF-268 CNS and in the assay with ACHN renal was more than 100 µM throughout. In addition, the TGI with OVCAR-3 ovarian, in the assay on SK-MEL-2 melanoma, in the assay on SNB-75 CNS, in the assay with COLO 205 colon and with XF 498 CNS was more than 100 µM throughout.
With `CCOC(=O)C(C)NC(=O)NC12CC3CC(CC(F)(C3)C1)C2` (stereo unspecified), the TGI with K-562 leukemia, in the assay on UACC-257 melanoma, in the assay with DMS 114 small cell lung, in the assay with KM20L2 colon, with ACHN renal and in the assay with OVCAR-3 ovarian was more than 100 µM each time. Further, the TGI was more than 100 µM in the assay with SK-MEL-2 melanoma; more than 100 µM in the assay on SNB-75 CNS; more than 100 µM in the assay on COLO 205 colon; more than 100 µM in the assay on HT29 colon; 89.4 µM in the assay on XF 498 CNS.
Consider `CC1(O)CC2C(CC1SC1CC3C(CC1(C)O)C3(C)C)C2(C)C` (stereo unspecified), for which the TGI in the assay with K-562 leukemia, in the assay on UACC-257 melanoma, in the assay with DMS 114 small cell lung, in the assay on SF-268 CNS, in the assay on ACHN renal and in the assay on OVCAR-3 ovarian was more than 100 µM throughout. In addition, the TGI with SK-MEL-2 melanoma is more than 100 µM; in the assay with SNB-75 CNS, 80.1 µM; in the assay on COLO 205 colon it was more than 100 µM; in the assay with HT29 colon, more than 100 µM; in the assay on XF 498 CNS, more than 100 µM.
On to `COc1cccc(C2=NC(C(C)C)CO2)c1OC` (stereo unspecified), for which the TGI in the assay with K-562 leukemia, with UACC-257 melanoma, with DMS 114 small cell lung, in the assay with KM20L2 colon, with SF-268 CNS and in the assay with ACHN renal was more than 100 µM throughout. The TGI with OVCAR-3 ovarian, in the assay with SK-MEL-2 melanoma, in the assay on SNB-75 CNS, in the assay on COLO 205 colon, with HT29 colon and with XF 498 CNS was more than 100 µM each time.
For `CCOC(=O)c1c(CN2CCNCC2)nc2ccc(Cl)cc2c1-c1ccccc1`, the TGI worked out at 7.03 µM in the assay on K-562 leukemia; 3.62 µM in the assay with UACC-257 melanoma; 4.05 µM with DMS 114 small cell lung; 6.87 µM in the assay on KM20L2 colon; 17.9 µM with SF-268 CNS; 12.9 µM with ACHN renal. Also, the TGI was 20.2 µM in the assay on OVCAR-3 ovarian; 31.9 µM with DU-145 prostate; 3.36 µM with SK-MEL-2 melanoma; 9.5 µM with SNB-75 CNS; 4.16 µM in the assay on COLO 205 colon; 3.68 µM in the assay with HT29 colon. In addition, the TGI in the assay on MCF7 breast turned out to be 28.6 µM; with XF 498 CNS, 9.43 µM.
In the case of `O=C1C(Cl)C(c2ccccc2Cl)N1n1cnc2ccccc2c1=O` (stereo unspecified), the TGI in the assay with K-562 leukemia, in the assay with UACC-257 melanoma, in the assay with DMS 114 small cell lung, with KM20L2 colon, with SF-268 CNS and in the assay with ACHN renal was more than 100 µM in each case. In addition, the TGI with OVCAR-3 ovarian is more than 100 µM; with SK-MEL-2 melanoma, 68.4 µM; with SNB-75 CNS, 59.4 µM; in the assay with COLO 205 colon it was more than 100 µM; with HT29 colon, more than 100 µM; with XF 498 CNS, more than 100 µM.
Consider `Cc1ccc(NC(=O)C2C3C=CC(O3)C2C(=O)O)cc1` (stereo unspecified), for which the TGI in the assay with K-562 leukemia, with UACC-257 melanoma, with DMS 114 small cell lung, in the assay on KM20L2 colon, with SF-268 CNS and in the assay on ACHN renal was more than 100 µM each time. The TGI is more than 100 µM in the assay with OVCAR-3 ovarian; more than 100 µM with SK-MEL-2 melanoma; more than 100 µM in the assay with SNB-75 CNS; more than 100 µM in the assay on COLO 205 colon; 39.8 µM in the assay on HT29 colon; more than 100 µM with XF 498 CNS.
`N=S(c1ccccc1[N+](=O)[O-])c1ccccc1[N+](=O)[O-]`: the GI50 with K-562 leukemia is 2190 nM; in the assay on KM20L2 colon, 5.21 µM and 12.9 µM; in the assay with HT29 colon, 1540 nM and 3830 nM; with XF 498 CNS, 4.84 µM and 2.14 µM. Moreover, the TGI with K-562 leukemia is 7.29 µM; in the assay with UACC-257 melanoma, 6.51 µM and 10.1 µM; with KM20L2 colon it was 11.2 µM and 27.4 µM; in the assay with SF-268 CNS it was 11.9 µM and 5.94 µM; in the assay on ACHN renal it was 3.22 µM and 3.61 µM; in the assay on OVCAR-3 ovarian, 1.63 µM and 3.05 µM. Further, the TGI with DU-145 prostate was 7.38 µM; with SK-MEL-2 melanoma, 7.97 µM and 9.86 µM; in the assay on SNB-75 CNS, 20.5 µM and 15.6 µM; in the assay on COLO 205 colon, 2.77 µM and 4.12 µM; in the assay with HT29 colon, 5.16 µM and 8.69 µM; with MCF7 breast it was 0.266 µM. Moreover, the TGI is 11.5 µM and 6.15 µM with XF 498 CNS; 2830 nM in the assay on MDA-N.
As to `CC(C)N(C(=O)C12C3C4C5C3C1(C(=O)O)C5C42)C(C)C` (stereo unspecified), the TGI in the assay with K-562 leukemia, with UACC-257 melanoma, with DMS 114 small cell lung, in the assay with KM20L2 colon, with SF-268 CNS and with ACHN renal was more than 100 µM in each case. Further, the TGI in the assay with OVCAR-3 ovarian, in the assay with SK-MEL-2 melanoma, in the assay with SNB-75 CNS, in the assay on COLO 205 colon, with HT29 colon and in the assay with XF 498 CNS was more than 100 µM each time.
Take `CCc1cccc(C(C)C)c1NC(=O)/C(=N\NC(N)=O)C(C(=O)OC)c1cnc2ccccc2n1` (stereo unspecified): the TGI in the assay on K-562 leukemia was more than 100 µM; with UACC-257 melanoma, 94.4 µM; in the assay on DMS 114 small cell lung, 54.2 µM; with KM20L2 colon it was more than 100 µM; in the assay with SF-268 CNS, more than 100 µM; in the assay on ACHN renal, more than 100 µM. Further, the TGI was 60.3 µM in the assay on OVCAR-3 ovarian; more than 100 µM in the assay on SK-MEL-2 melanoma; more than 100 µM with SNB-75 CNS; 49.6 µM in the assay with COLO 205 colon; more than 100 µM in the assay with HT29 colon; more than 100 µM with XF 498 CNS.
